Laboratory results published in patent publication US8324267B2, “Kinase inhibitors and the use thereof” (Forschungzentrum Karlsruhe GmbH, priority 2001, dated 2012).
“Also recorded” adds a separate entry of the source.

Legend:
[1] = system: Human endothelial cells (HDMEC); test: Apoptosis, Cell Death Detection ELISA (nucleosome ELISA); assay type: cell-based; settings: 24 h, FIG. 5
Protocol: (§1) Human endothelial cells (HDMEC) and rat pancreatic tumor cells (1AS) were resuspended (10^5 cells/ml). 50 μl of cell suspension were seeded in 96-well cell culture plates and incubated at 37° C. for 24 h. The cells were then incubated with the stated concentrations of the various inhibitors for a further 24 h. The pro-apoptotic effect of the compounds was determined using the Cell Death Detection ELISA^plus kit (Roche Diagnostics GmbH, Mannheim) in accordance with the manufacturer's statements. The kit contains a photometric enzyme immunoassay for qualitative and quantitative in vitro determination of cytoplasmic histone-associated DNA fragments (mono- and oligo-nucleosomes) released through active cell death (apoptosis). […] The measurements relative to the untreated cells are plotted against the inhibitor concentration.
(§2) FIG. 5: Nucleosome ELISA test (Cell Death Detection ELISA). The extent of dead cells of the respective cell line is depicted (as relative absorption at 405 nm) in relation to the use of the inhibitors MAE87, MAE106 and MAZ51 and MAZ51-2.

[2] = system: rat pancreatic tumor cells (1AS); test: as above; assay type: cell-based; settings: 1AS cells, 24 h; FIG. 5
Protocol: as §1, §2

VEGFR-2 = VEGFR-2 (Homo sapiens, UniProt P35968); test: Ligand-induced autophosphorylation in VEGFR-2-expressing PAE cells (immunoprecipitation, Western blot); assay type: cell-based; settings: PAE/VEGFR-2 cells, VEGF stimulated; 0.5, 5 or 50 μM; FIG. 1
Chain of VEGFR-2 (P35968 20-1356): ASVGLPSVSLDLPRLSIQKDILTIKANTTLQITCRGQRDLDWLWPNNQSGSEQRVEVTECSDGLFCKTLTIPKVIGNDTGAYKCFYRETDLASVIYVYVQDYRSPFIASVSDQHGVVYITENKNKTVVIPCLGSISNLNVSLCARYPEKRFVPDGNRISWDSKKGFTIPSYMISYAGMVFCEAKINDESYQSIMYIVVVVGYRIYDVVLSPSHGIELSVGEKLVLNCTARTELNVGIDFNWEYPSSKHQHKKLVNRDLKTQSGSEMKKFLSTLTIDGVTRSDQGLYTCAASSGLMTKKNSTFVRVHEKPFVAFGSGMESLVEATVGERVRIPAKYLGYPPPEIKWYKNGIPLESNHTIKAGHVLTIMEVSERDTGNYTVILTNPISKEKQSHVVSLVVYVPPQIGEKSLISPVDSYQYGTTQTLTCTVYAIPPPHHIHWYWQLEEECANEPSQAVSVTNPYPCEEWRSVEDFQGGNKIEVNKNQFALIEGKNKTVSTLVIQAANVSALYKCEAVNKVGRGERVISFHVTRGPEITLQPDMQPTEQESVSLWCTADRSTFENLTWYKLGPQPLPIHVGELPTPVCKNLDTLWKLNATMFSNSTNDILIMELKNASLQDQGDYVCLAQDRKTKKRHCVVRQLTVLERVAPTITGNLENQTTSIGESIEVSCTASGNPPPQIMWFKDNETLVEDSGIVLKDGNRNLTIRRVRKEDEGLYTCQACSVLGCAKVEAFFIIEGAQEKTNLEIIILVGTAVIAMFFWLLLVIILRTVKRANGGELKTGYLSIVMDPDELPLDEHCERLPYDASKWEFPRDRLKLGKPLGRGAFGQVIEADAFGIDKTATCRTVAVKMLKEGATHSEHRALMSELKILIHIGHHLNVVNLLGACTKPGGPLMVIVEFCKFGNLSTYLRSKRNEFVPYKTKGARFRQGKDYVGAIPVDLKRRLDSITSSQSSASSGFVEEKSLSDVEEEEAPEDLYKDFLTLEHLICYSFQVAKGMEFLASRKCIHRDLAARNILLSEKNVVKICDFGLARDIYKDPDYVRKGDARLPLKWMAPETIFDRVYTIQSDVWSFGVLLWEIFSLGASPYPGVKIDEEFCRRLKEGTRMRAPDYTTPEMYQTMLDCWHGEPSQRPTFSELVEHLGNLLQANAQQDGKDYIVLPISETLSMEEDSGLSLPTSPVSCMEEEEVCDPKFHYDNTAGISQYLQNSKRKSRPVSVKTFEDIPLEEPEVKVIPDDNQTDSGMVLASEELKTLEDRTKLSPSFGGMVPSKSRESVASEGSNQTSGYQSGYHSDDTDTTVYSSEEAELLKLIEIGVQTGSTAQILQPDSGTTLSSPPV
Protocol: VEGFR-2- and VEGFR-3-expressing PAE cells (pig aorta endothel cells) were incubated with 0.5 μM, 5 μM or 50 μM of the appropriate test compound. The cells were then stimulated with VEGF (VEGFR-2) or VEGF-C (VEGFR-3) or without growth factor as negative control. The cells were harvested after 15 min and immunoprecipitated with VEGFR-2 or VEGFR-3. The immunoprecipitates were blotted after electrophoresis and investigated with anti-phosphotyrosine antibody. The blots were detached and investigated with VEGFR-2 or VEGFR-3 antibody to check the loading.
PAE/VEGFR-2 or PAE/VEGFR-3 were seeded in 15 cm tissue culture tissues and cultivated to 50% confluence. The cells were then starved in serum-free medium (with 0.2% BSA) for 16-24 h (PAE/VEGFR-3) or 72 h […]. After preincubation with 5 ml of 1 mM serum-free medium (1 mM Na3VO4) and various inhibitor concentrations for 30-60 min, the cells were stimulated at 37° C. for 5 min (VEGFR-3) or 8 min (VEGFR-2). The cells were then rapidly washed twice with ice-cold PBS (with 1 mM Na3VO4) and lysed with ice-cold modified RIPA buffer (30 mM Tris-HCl, pH 7.4, 150 mM NaCl, 1 mM EDTA, 0.5% (v/v) Triton X100, 0.5% (w/v) sodium deoxycholate, 10 mM NaF) freshly prepared with 1 mM PMSF, 0.1 U/ml aprotinin, 10 ng/ml leupeptin and 5 mM Na3VO4. The cells were harvested from the plate with the aid of a rubber policeman and collected in centrifuge tubes on ice. The lysates were solubilized by forcing through a syringe with a 25 G needle, and were centrifuged at 4° C./13 000 rpm for 15 min to remove insoluble constituents.
The clear lysates were incubated with 4 μg of anti-VEGFR-2 (C-1158, Santa Cruz) or […] at 4° C. overnight.
The receptor-antibody complex was precipitated by adding 30 μl of protein A-Sepharose (Amersham)/tube and incubating at 4° C. for a further 2 hours. […]

[3] = system: rat tumor cell lines (ASML, 1AS, G, AT6.1, MTLN3, MTLY, NM081 and MT450); test: Tumor cell proliferation, 3H-thymidine incorporation; assay type: cell-based; settings: 2.5 μM or 10 μM, 24 h, FIG. 4
Protocol: Cells of the rat tumor cell line (Nestl et al., 2001, Cancer Research 61: 1569-1577) were cultivated in the presence of 1% DMSO (solvent control), 2.5 μM or 10 μM of the indolinone for 24 h. Tritiated thymidine was added to the medium during the last 4-6 h of incubation. The cells were harvested and the amount of radioactivity incorporated into the DNA was quantified.
The data are stated in percent relative to the proliferation of the cells treated only with DMSO (% relative to control; see FIG. 4)).
FIG. 4: Measurement of the (^3H)-thymidine incorporation (in %) into rat tumor cell lines (ASML, 1AS, G, AT6.1, MTLN3, MTLY, NM081 and MT450) as a function of the concentration of inhibitors employed. The inhibition of cell proliferation by MAE87, MAE106 and MAZ51 is dose-dependent.

[4] = system: MT450 rat mammary carcinoma cells; test: Growth of subcutaneous MT450 mammary carcinomas in Wistar Furth rats; assay type: in vivo; settings: MT450 cells s.c., 8 mg/kg/day intraperitoneally in DMSO, FIG. 8
Protocol: MT450 rat mammary carcinoma cells were injected subcutaneously into Wistar Furth rats. Treatment with the active substance MAZ51 at 8 mg/kg/day in 100% DMSO or solvent control (100% DMSO) was started the day after injection of the tumor cells. MAZ51 or only solvent was injected intraperitoneally each day. Each test group comprised 8 animals. The tumors were measured every 4-5 days.
FIG. 8: Depiction of the tumor volume as a function of the number of days after tumor cell injection depending on treatment of the MT450 tumor cells with MAZ51 and a DMSO solution (negative control).

| SMILES | induction of apoptosis (relative absorption at 405 nm) [1] | induction of apoptosis (relative absorption at 405 nm) [2] | inhibition of ligand-induced autophosphorylation of VEGFR-2 (VEGFR-2) | inhibition of tumor cell proliferation (3H-thymidine incorporation, % relative to control) [3] | inhibition of tumor growth (tumor volume) [4] |
| --- | --- | --- | --- | --- | --- |
| O=C1Nc2ccccc2C1=Cc1ccc(O)cc1O [MAE87, 3-(2,4-Dihydroxybenzylidene)-1,3-dihydroindol-2-one] | Induced Apoptosis | Induced Apoptosis | Inhibit the Ligand-Induced Autophosphorylation | dose-dependent |  |
| COc1ccc(C=C2C(=O)Nc3ccccc32)cc1F [MAE106, 3-(3-Fluoro-4-methoxybenzylidene)-1,3-dihydroindole-2-one] | Induced Apoptosis | Induced Apoptosis | Inhibit the Ligand-Induced Autophosphorylation | dose-dependent |  |
| CN(C)c1ccc(C=C2C(=O)Nc3ccccc32)c2ccccc12 [MAZ51, 3-(4-Dimethylaminonaphthalen-1-ylmethylene)-1,3-dihydroindol-2-one] | potent activator of apoptosis | potent activator of apoptosis | Inhibit the Ligand-Induced Autophosphorylation | greatest inhibitory effect; also recorded: dose-dependent | inhibited in vivo |
